melting point | Compound
> 250 °C | CN(C)c1cc2c(cc1Cl)NC(=O)CC(c1cccc(C#N)c1)=N2 [Example 1, 3-(7-Chloro-8-dimethylamino-4-oxo-4,5-dihydro-3H-benzo[b][1,4]diazepin-2-yl)-benzonitrile]
222 to 225 °C | CN(C)c1cc2c(cc1Cl)NC(=O)CC(c1cccc(-n3ccnn3)c1)=N2 [Example 2, 8-Chloro-7-dimethylamino-4-(3-[1,2,3]triazol-1-yl-phenyl)-1,3-dihydro-benzo[b][1,4]diazepin-2-one]
215 to 216 °C | CN(C)c1cc2c(cc1C#Cc1ccccc1)NC(=O)CC(c1cccc(C#N)c1)=N2 [Example 4, 3-(8-Dimethylamino-4-oxo-7-phenylethynyl-4,5-dihydro-3H-benzo[b][1,4]diazepin-2-yl)-benzonitrile]
212 to 215 °C | Cc1cc(-c2cccc(C3=Nc4cc(N(C)C)c(Cl)cc4NC(=O)C3)c2)on1 [Example 6, 8-Chloro-7-dimethylamino-4-[3-(3-methyl-isoxazol-5-yl)-phenyl]-1,3-dihydro-benzo[b][1,4]diazepin-2-one]
210 °C | CN(C)c1cc2c(cc1C(F)(F)F)NC(=O)CC(c1cccc(-n3nncc3CO)c1)=N2 [Example 17, 7-Dimethylamino-4-[3-(5-hydroxymethyl-[1,2,3]triazol-1-yl)-phenyl]-8-trifluoromethyl-1,3-dihydro-benzo[b][1,4]diazepin-2-one]
223 °C | Cc1cc(-c2cccc(C3=Nc4cc(N(C)C)c(C(F)(F)F)cc4NC(=O)C3)c2)on1 [Example 18, 7-Dimethylamino-4-[3-(3-methyl-isoxazol-5-yl)-phenyl]-8-trifluoromethyl-1,3-dihydro-benzo[b][1,4]diazepin-2-one]
145 to 160 °C | CN(C)Cc1cnnn1-c1cccc(C2=Nc3cc(N(C)C)c(Cl)cc3NC(=O)C2)c1 [Example 20, 8-Chloro-7-dimethylamino-4-[3-(5-dimethylaminomethyl-[1,2,3]triazol-1-yl)-phenyl]-1,3-dihydro-benzo[b][1,4]diazepin-2-one]
191 °C | COCc1cc(-c2cccc(C3=Nc4cc(N(C)C)c(Cl)cc4NC(=O)C3)c2)on1 [Example 21, 8-Chloro-7-dimethylamino-4-[3-(3-methoxymethyl-isoxazol-5-yl)-phenyl]-1,3-dihydro-benzo[b][1,4]diazepin-2-one]
248 °C | CN(C)c1cc2c(cc1C(F)(F)F)NC(=O)CC(c1ccnc(C#N)c1)=N2 [Example 22, 4-(8-Dimethylamino-4-oxo-7-trifluoromethyl-4,5-dihydro-3H-benzo[b][1,4]diazepin-2-yl)-pyridine-2-carbonitrile]
132 °C | CN(C)c1cc2c(cc1Cl)NC(=O)CC(c1cccc(-c3cc(CO)no3)c1)=N2 [Example 31, 8-Chloro-7-dimethylamino-4-[3-(3-hydroxymethyl-isoxazol-5-yl)-phenyl]-1,3-dihydro-benzo[b][1,4]diazepin-2-one]
225 °C | CN(C)c1cc2c(cc1C(F)(F)F)NC(=O)CC(c1cccc(-c3ccnn3C)c1)=N2 [Example 33, 7-Dimethylamino-4-[3-(2-methyl-2H-pyrazol-3-yl)-phenyl]-8-trifluoromethyl-1,3-dihydro-benzo[b][1,4]diazepin-2-one]
232 to 233 °C | Cc1noc(-c2cccc(C3=Nc4cc(N(C)C)c(Cl)cc4NC(=O)C3)c2)c1CO [Example 35, 8-Chloro-7-dimethylamino-4-[3-(4-hydroxymethyl-3-methyl-isoxazol-5-yl)-phenyl]-1,3-dihydro-benzo[b][1,4]diazepin-2-one]
195 to 197 °C | Cc1cc(-c2cccc(C3=Nc4cc(N(C)C5CC5)c(Cl)cc4NC(=O)C3)c2)on1 [Example 36, 8-Chloro-7-(cyclopropyl-methyl-amino)-4-[3-(3-methyl-isoxazol-5-yl)-phenyl]-1,3-dihydro-benzo[b][1,4]diazepin-2-one]
200 °C | CN(C)Cc1cnnn1-c1cccc(C2=Nc3cc(N(C)C)c(C(F)(F)F)cc3NC(=O)C2)c1 [Example 38, 7-Dimethylamino-4-[3-(5-dimethylaminomethyl-[1,2,3]triazol-1-yl)-phenyl]-8-trifluoromethyl-1,3-dihydro-benzo[b][1,4]diazepin-2-one]
184 °C | CN(C)c1cc2c(cc1Cl)NC(=O)CC(c1cccc(-c3cc(CO)nn3C)c1)=N2 [Example 39, 8-Chloro-7-dimethylamino-4-[3-(5-hydroxymethyl-2-methyl-2H-pyrazol-3-yl)-phenyl]-1,3-dihydro-benzo[b][1,4]diazepin-2-one]
75 °C | CN(C)c1cc2c(cc1F)NC(=O)CC(c1cccc(-n3nncc3CO)c1)=N2 [Example 42, 7-Dimethylamino-8-fluoro-4-[3-(5-hydroxymethyl-[1,2,3]triazol-1-yl)-phenyl]-1,3-dihydro-benzo[b][1,4]diazepin-2-one]
181 °C | CN(C)Cc1cnnn1-c1cccc(C2=Nc3cc(N(C)C)c(F)cc3NC(=O)C2)c1 [Example 43, 7-Dimethylamino-4-[3-(5-dimethylaminomethyl-[1,2,3]triazol-1-yl)-phenyl]-8-fluoro-1,3-dihydro-benzo[b][1,4]diazepin-2-one]
187 °C | CN(C)c1cc2c(cc1F)NC(=O)CC(c1cccc(-c3cc(CO)no3)c1)=N2 [Example 44, 7-Dimethylamino-8-fluoro-4-[3-(3-hydroxymethyl-isoxazol-5-yl)-phenyl]-1,3-dihydro-benzo[b][1,4]diazepin-2-one]
211 °C (dec.) | CN(C)c1cc2c(cc1Cl)NC(=O)CC(c1cccc(-c3cc(CO)on3)c1)=N2 [Example 49, 8-Chloro-7-dimethylamino-4-[3-(5-hydroxymethyl-isoxazol-3-yl)-phenyl]-1,3-dihydro-benzo[b][1,4]diazepin-2-one]

Second part, the molecule before the results:

Compound | melting point
CN(C)c1cc2c(cc1C#Cc1ccccc1)NC(=O)CC(c1cccc(-n3ccnn3)c1)=N2 [Example 5, 7-Dimethylamino-8-phenylethynyl-4-(3-[1,2,3]triazol-1-yl-phenyl)-1,3-dihydro-benzo[b][1,4]diazepin-2-one] | 185 to 186 °C
Cc1cc(-c2cc(C3=Nc4cc(N(C)C)c(Cl)cc4NC(=O)C3)ccn2)on1 [Example 10, 8-Chloro-7-dimethylamino-4-[2-(3-methyl-isoxazol-5-yl)-pyridin-4-yl]-1,3-dihydro-benzo[b][1,4]diazepin-2-one] | > 250 °C
COCCN(C)c1cc2c(cc1Cl)NC(=O)CC(c1ccnc(-c3cc(C)no3)c1)=N2 [Example 12, 8-Chloro-7-[(2-methoxy-ethyl)-methyl-amino]-4-[2-(3-methyl-isoxazol-5-yl)-pyridin-4-yl]-1,3-dihydro-benzo[b][1,4]diazepin-2-one] | 213 °C
COCCN(C)c1cc2c(cc1Cl)NC(=O)CC(c1cccc(-n3nncc3CO)c1)=N2 [Example 13, 8-Chloro-4-[3-(5-hydroxymethyl-[1,2,3]triazol-1-yl)-phenyl]-7-[(2-methoxy-ethyl)-methyl-amino]-1,3-dihydro-benzo[b][1,4]diazepin-2-one] | 185 °C
COCCN(C)c1cc2c(cc1Cl)NC(=O)CC(c1cccc(-n3ccnn3)c1)=N2 [Example 14, 8-Chloro-7-[(2-methoxy-ethyl)-methyl-amino]-4-(3-[1,2,3]triazol-1-yl-phenyl)-1,3-dihydro-benzo[b][1,4]diazepin-2-one] | 156 °C
CN(C)c1cc2c(cc1Cl)NC(=O)CC(c1ccnc(C#N)c1)=N2 [Example 15, 4-(7-Chloro-8-dimethylamino-4-oxo-4,5-dihydro-3H-benzo[b][1,4]diazepin-2-yl)-pyridine-2-carbonitrile] | 216 °C
O=C1CC(c2cccc(-n3ccnc3)c2)=Nc2cc(OCC(F)(F)F)c(-c3ccccc3F)cc2N1 [Example 23, 8-(2-Fluoro-phenyl)-4-(3-imidazol-1-yl-phenyl)-7-(2,2,2-trifluoro-ethoxy)-1,3-dihydro-benzo[b][1,4]diazepin-2-one] | 208 to 210 °C
O=C1CC(c2cccc(-n3nncc3CO)c2)=Nc2cc(OCC(F)(F)F)c(-c3ccccc3F)cc2N1 [Example 26, 8-(2-Fluoro-phenyl)-4-[3-(5-hydroxymethyl-[1,2,3]triazol-1-yl)-phenyl]-7-(2,2,2-trifluoro-ethoxy)-1,3-dihydro-benzo[b][1,4]diazepin-2-one] | 232 to 234 °C
CCN(C)c1cc2c(cc1Cl)NC(=O)CC(c1cccc(-n3nncc3CO)c1)=N2 [Example 28, 8-Chloro-7-(ethyl-methyl-amino)-4-[3-(5-hydroxymethyl-[1,2,3]triazol-1-yl)-phenyl]-1,3-dihydro-benzo[b][1,4]diazepin-2-one] | 206 °C (dec.)
CN(c1cc2c(cc1Cl)NC(=O)CC(c1ccnc(C#N)c1)=N2)C1CC1 [Example 34, 4-[7-Chloro-8-(cyclopropyl-methyl-amino)-4-oxo-4,5-dihydro-3H-benzo[b][1,4]diazepin-2-yl]-pyridine-2-carbonitrile] | 199 to 201 °C
N#Cc1cc(C2=Nc3cc(N4CCCC4)c(C(F)(F)F)cc3NC(=O)C2)ccn1 [Example 40, 4-(4-Oxo-8-pyrrolidin-1-yl-7-trifluoromethyl-4,5-dihydro-3H-benzo[b][1,4]diazepin-2-yl)-pyridine-2-carbonitrile] | 188 °C (dec.)
O=C1CC(c2cccc(-n3nncc3CO)c2)=Nc2cc(N3CCCC3)c(C(F)(F)F)cc2N1 [Example 41, 4-[3-(5-Hydroxymethyl-[1,2,3]triazol-1-yl)-phenyl]-7-pyrrolidin-1-yl-8-trifluoromethyl-1,3-dihydro-benzo[b][1,4]diazepin-2-one] | 134 °C
CN(C)c1cc2c(cc1Cl)NC(=O)CC(c1cccc(-n3nncc3CN3CCCC3)c1)=N2 [Example 45, 8-Chloro-7-dimethylamino-4-[3-(5-pyrrolidin-1-ylmethyl-[1,2,3]triazol-1-yl)-phenyl]-1,3-dihydro-benzo[b][1,4]diazepin-2-one] | 180 to 182 °C
CN(C)c1cc2c(cc1Cl)NC(=O)CC(c1cccc(-n3nncc3CN3CCC3)c1)=N2 [Example 48, 4-[3-(5-Azetidin-1-ylmethyl-[1,2,3]triazol-1-yl)-phenyl]-8-chloro-7-dimethylamino-1,3-dihydro-benzo[b][1,4]diazepin-2-one] | 153 °C

From patent US6544985B2, “Dihydro-benzo [b][1,4]diazepin-2-one derivatives” (Hoffman-La Roche Inc., priority 2001, dated 2003)
